Reference: patent US5164381A, “Pharmacologically active 1,5-diaryl-3-substituted pyrazoles and method for synthesizing the same” (Ortho Pharmaceutical Corporation, priority 1991, dated 1992)

What was measured:
bronchospasm / LTB4 = experiment: Arachidonic acid-induced bronchospasm and LTB4 blood levels in anesthetized guinea pigs; assay type: in vivo; conditions: AA i.v. 10 mg/kg
Description: Intravenous administration of 10 mg/kg AA to anesthetized guinea pigs pretreated with indomethacin (10 mg/kg) and propranolol (0.1 mg/kg) results in a sustained bronchospasm which is associated with increased blood levels of LTB4. […] In the dog, intraarticular injection of rabbit anti-dog-dog IgG immune complexes into the knee joint results in an acute synovitis characterized by an influx of inflammatory cells into the joint space as well as an increase in synovial fluid levels of PGE2 and LTB4.

cyclooxygenase (CO) = conditions: cited from earlier work
[1] = tested on: Lewis strain laboratory rats; experiment: In vivo alleviation of inflammation: polyarthritis (adjuvant, Mycobacterium butyricum) in rats, inhibition of paw volume increase; conditions: po, rat; for ED50: Rattus norvegicus, read-out: ED50 (effective dose to obtain a 50% inhibition of inflammation); for inhibition in vivo at 10 mg/kg: 10 mpk p.o.; for inhibition in vivo at 40 mg/kg: 40 mpk p.o.; for inhibition in vivo at 15 mg/kg: 15 mpk p.o.; for inhibition in vivo at 25 mg/kg: 25 mpk p.o.
Description: Polyarthritis was induced in Lewis strain laboratory rats (weight=about 200 grams) by injection of a suspension of Mycobacterium butyricum in mineral oil into the subplantar tissue of the mammal's hind paws. On day 10 after the injection, the rats were assigned to groups, and paw volumes and body weights were recorded. Paw volumes of the contralateral, uninjected hind paw were determined by mercury plethylsmography. Per oral (p.o.) dosing began and continued for five consecutive days thereafter. On day 14 after the initial injection, approximately four hours after the final dose was administered, paw volumes and body weights were recorded and quantitated.
Anti-inflammatory activity of the substituted pyrazole compounds is expressed as the percent inhibition of paw volume increase.

interleukin-1 = conditions: in vitro and in vivo; cited from earlier work
C-reactive protein = conditions: rheumatoid arthritis patients; cited from earlier work
[2] = 336 h, read-out: % INH. p.o. (percentage inhibition of pad swelling)

COc1ccc2c(c1)c(CC(=O)O)c(C)n2C(=O)c1ccc(Cl)cc1 [indomethacin]
effect on LTB4 levels (in words) (bronchospasm / LTB4): no effect
effect on bronchospasm (in words) (bronchospasm / LTB4): no effect
inhibition of cyclooxygenase enzyme by NSAIDs (in words) (cyclooxygenase (CO)): only inhibit the cyclooxygenase enzyme

COc1ccc(-n2nc(CCCN(O)C(=O)C(=O)NO)cc2-c2ccc(Cl)cc2)cc1 [Compound 158, N-[3-[5-(4-Chlorophenyl)-1-(4-methoxyphenyl)-3-pyrazolyl]propyl]-N,N'-dihydroxyoxamide]
ED50 [1]: 33.4 mg/kg

COc1ccc(-n2nc(CCC(=O)N(O)C(C)=O)cc2-c2ccc(Cl)cc2)cc1 [Compound 171, N-Acetyl-3-[5-(4-chlorophenyl)-1-(4-methoxyphenyl)-3-pyrazolyl]-N-hydroxy-propanamide]
inhibition in vivo at 10 mg/kg [1, 2]: 62%

CCC(CCc1cc(-c2ccc(Cl)cc2)n(-c2ccc(OC)cc2)n1)=NNc1nccs1 [Compound 175]
inhibition in vivo at 10 mg/kg [1, 2]: 16%

OCCCc1cc(-c2ccc(Cl)cc2)n(-c2ccc(Cl)c(Cl)c2)n1 [Compound 8]
inhibition in vivo at 50 mg/kg ([1]; 336 h, 50 mpk p.o., read-out: % INH. p.o. (percentage inhibition of pad swelling)): 41%

COc1ccc(-n2nc(CCCN)cc2-c2ccc(Cl)cc2)cc1 [Compound 96, 3-[5-(4-Chlorophenyl)-1-(4-methoxyphenyl)-3-pyrazolyl]propylamine]
inhibition in vivo at 30 mg/kg ([1]; 336 h, 30 mpk p.o., read-out: % INH. p.o. (percentage inhibition of pad swelling)): 56%

COc1ccc(-n2nc(CCC(=O)N(O)c3ccccc3)cc2-c2ccc(Cl)cc2)cc1 [Compound 84, 3-[5-(4-chlorophenyl)-1-(4-methoxyphenyl)-3-pyrazolyl]-N-hydroxy-N-phenylpropanamide]
inhibition in vivo at 40 mg/kg [1, 2]: 27%

COc1ccc(-n2nc(CCC=NNc3nccs3)cc2-c2ccc(Cl)cc2)cc1 [Compound 174]
inhibition in vivo at 15 mg/kg [1, 2]: 37%

COc1ccc(-n2nc(CCC(=O)N(OC(C)=O)C(C)=O)cc2-c2ccc(Cl)cc2)cc1 [Compound 172, N-Acetyl-N-acetoxy-[5-(4-chlorophenyl)-1-(4-methoxyphenyl)-3-pyrazolyl]-propanamide]
inhibition in vivo at 15 mg/kg [1, 2]: 83%

NC(=O)N1C(=O)C(=C(O)c2cccs2)c2cc(Cl)ccc21 [CP 66,248]
inhibition of interleukin-1 levels (in words) (interleukin-1): could inhibit interleukin-1 levels in vitro and in vivo
C-reactive protein levels (in words) (C-reactive protein): reduction of C-reactive protein levels

COc1ccc(-n2nc(CCC(=N)N(C)O)cc2-c2ccc(Cl)cc2)cc1 [Compound 185, N-Hydroxy-N-methyl-2-[5-(4-chlorophenyl)-1-(4-methoxyphenyl)-3-pyrazolyl]ethylcarboximidamide Monohydrate]
inhibition in vivo at 15 mg/kg [1, 2]: 5%

COc1ccc(-n2nc(CCC(O)c3ccccc3)cc2-c2ccc(Cl)cc2)cc1 (stereo not drawn) [Compound 178]
inhibition in vivo at 15 mg/kg [1, 2]: 8%

COc1ccc(-n2nc(CCCN(O)S(C)(=O)=O)cc2-c2ccc(Cl)cc2)cc1 [Compound 156]
inhibition in vivo at 9 mg/kg ([1]; 336 h, 9 mpk p.o., read-out: % INH. p.o. (percentage inhibition of pad swelling)): 34%

COc1ccc(-n2nc(CCCO)cc2-c2ccc(C)cc2)cc1 [Compound 55, 3-(3-hydroxypropyl)-1-(4-methoxyphenyl)-5-(4-tolyl)pyrazole]
ED50 [1]: 3.9 mg/kg

CCOC(=O)CCc1cc(-c2ccc(Cl)cc2)n(-c2ccc(OCC)cc2)n1 [Compound 75]
inhibition in vivo at 40 mg/kg [1, 2]: 73%

COc1ccc(-n2nc(CCCOCC(=O)O)cc2-c2ccc(Cl)cc2)cc1 [Compound 93]
inhibition in vivo at 15 mg/kg [1, 2]: 17%

COc1ccc(-n2nc(CCNC(=O)C(=O)NO)cc2-c2ccc(Cl)cc2)cc1 [Compound 165]
inhibition in vivo at 15 mg/kg [1, 2]: 41%

COc1ccc(-n2nc(CCC(=O)Nc3ccc(O)cc3)cc2-c2ccc(Cl)cc2)cc1 [Compound 34]
inhibition in vivo at 25 mg/kg [1, 2]: 21%

COc1ccc(-c2cc(CCC(=O)N(C)O)nn2-c2ccc(OC)cc2)cc1 [Compound 113]
inhibition in vivo at 10 mg/kg [1, 2]: 34%

COc1ccc(-n2nc(CCC(=O)N(C)OC(=O)C(C)(C)C)cc2-c2ccc(Cl)cc2)cc1 [Compound 141]
inhibition in vivo at 10 mg/kg [1, 2]: 17%

COc1ccc(-n2nc(CCCOC(=O)CCc3cc(-c4ccc(Cl)cc4)n(-c4ccc(OC)cc4)n3)cc2-c2ccc(Cl)cc2)cc1 [Compound 16, 3-[5-(4-Chlorophenyl)-1-(4-methoxyphenyl)-3-pyrazolyl] propyl 3-[5-(4-Chlorophenyl)-1-(4-methoxyphenyl)-3-pyrazolyl] propionate]
inhibition in vivo at 25 mg/kg [1, 2]: 82%

COc1ccc(-n2nc(CCC(=O)N(C)OC(=O)CCC(=O)O)cc2-c2ccc(C)cc2)cc1 [Compound 130]
ED50 [1]: 11.5 mg/kg

COc1ccc(-n2nc(CCC(=O)NCC(=O)O)cc2-c2ccc(Cl)cc2)cc1 [Compound 66, N-Carboxymethyl-3-[5-(4-chlorophenyl)-1-(4-methoxyphenyl)-3-pyrazolyl]propanamide]
inhibition in vivo at 25 mg/kg [1, 2]: 62%

CNOC(=O)CCc1cc(-c2ccc(Cl)cc2)n(-c2ccc(OC)cc2)n1 [Compound 53, 0-[2-[5-(4-Chlorophenyl)-1-(4-methoxyphenyl)-3-pyrazolyl]ethyl-carbonyl]-N-methylhydroxylamine]
inhibition in vivo at 40 mg/kg [1, 2]: 94%

CCC(=O)CCc1cc(-c2ccc(Cl)cc2)n(-c2ccc(OC)cc2)n1 [Compound 180]
inhibition in vivo at 15 mg/kg [1, 2]: 32%

COc1ccc(-n2nc(CCC(=O)N(O)C(C)(C)C)cc2-c2ccc(Cl)cc2)cc1 [Compound 58, 3-[5-(4-chlorophenyl)-1-(4-methoxyphenyl)-3-pyrazolyl]-N-tert-butyl-N-hydroxypropanamide]
inhibition in vivo at 25 mg/kg [1, 2]: 47%

COc1ccc(-n2nc(CCCO)cc2-c2ccc(Cl)cc2)cc1 [Compound 2, 5-(4-Chlorophenyl)-3-(3-hydroxypropyl)-1-(4-methoxyphenyl) pyrazole]
ED50 [1]: 3.6 mg/kg
